Here are results for 14 compounds from patent publication US20260184738A1 (priority 2023, published 2026).

Series [1] relates to CHIKV. The series can be described thus: Antiviral activity against CHIKV. In kind it is cell-based. Particulars: Chikungunya virus.
Series [2] can be described thus: in vitro.
The subject of series [3] is EBOV (VP30, Huh). As to the kind of experiment: microbe, parasite or virus in culture. In kind it is cell-based, Ebola Virus. Particulars: for EC50: read-out: EC50, EBOV (VP30, Huh).
Series [4] in a line: in vitro. Particulars: human.
Series [5] concerns DENV2. As to the kind of experiment: Antiviral activity against DENV2. It is filed as cell-based. As to conditions: Dengue Virus 2.
Series [6] deals with DENV4. The series can be described thus: Antiviral activity against DENV4. In kind it is cell-based. Particulars: Dengue Virus 4.
In series [7] the test system is SARS-CoV-2 (Omicron). As to the kind of experiment: microbe, parasite or virus in culture. In kind it is cell-based. As to conditions: Severe acute respiratory syndrome coronavirus 2, Calu-3, read-out: IC50, SARS-CoV-2 (Omicron) (Calu3) #1.
A short description of series [8]: Cytotoxicity (CC50) alongside DENV2 assay.
The subject of series [9] is SARS-CoV-2 (WA-1). As to the kind of experiment: microbe, parasite or virus in culture. It is filed as cell-based. As to conditions: Severe acute respiratory syndrome coronavirus 2, A549, read-out: IC50, SARS-CoV-2 (WA-1) #1.
Series [10] deals with SARS-CoV-2 (WA-1). As to the kind of experiment: microbe, parasite or virus in culture. In kind it is cell-based. Particulars: Severe acute respiratory syndrome coronavirus 2, A549, read-out: IC50, SARS-CoV-2 (WA-1) #2.
A short description of series [11]: Cytotoxicity (CC50) alongside SARS-CoV-2 WA-1 assay, lab #1. Particulars: human, A549 cells.
Series [12] is described as follows: Cytotoxicity (CC50) alongside SARS-CoV-2 WA-1 assay, lab #2. As to conditions: human, A549 cells.
The subject of series [13] is SARS-CoV-2 (A549-hACE2). As to the kind of experiment: microbe, parasite or virus in culture. In kind it is cell-based.
The subject of series [14] is VEEV. As to the kind of experiment: microbe, parasite or virus in culture. It is filed as cell-based. As to conditions: Venezuelan equine encephalitis virus, read-out: EC50, VEEV.
Series [15] has as its system OC43. As to the kind of experiment: Antiviral activity against OC43 (Huh 7.5 IFITM3). It is filed as cell-based, human coronavirus. As to conditions: Betacoronavirus 1, OC43, Huh7.5.
The nature of series [16]: in vitro. This is another data set of the same source.
The nature of series [17]: Cytotoxicity (CC50) alongside DENV4 assay.
A short description of series [18]: Cytotoxicity (CC50) alongside SARS-CoV-2 (A549-hACE2) assay. As to conditions: human, A549-hACE2 cells.
[19] abbreviates: Zaire ebolavirus, Huh-7, read-out: IC50, EBOV (VP30, Huh).

Where two headings read alike, the source gives them in different places.

Take `CC(C)OC(=O)[C@H](C)N[P@](=O)(OC[C@H]1O[C@@H](n2cnc3sc4c(=O)[nH]cnc4c32)C(O)C1O)Oc1ccccc1` (stereo in doubt) [CEM-010]: half-maximal inhibition in series [1] (IC50) required 82.5 µM. Also, the CC50 in [2] was over 100 µM.
As to `CC1(F)C(O)[C@@H](CO)O[C@H]1n1cnc2sc3c(N)nc(N)nc3c21` (stereo in doubt) [CEM-024, 2′-deoxy-2′-fluoro-2′-C-methyl-1′-[(5,7-diaminoimidazo-[4′,5′:4,5]thieno[3,2-d]pyrimidin-3-yl)]-β-D-ribofuranose], in series [3] (setting [19]), the IC50 was 31 µM. Also, the CC50 in series [4] was found to be 11 µM.
Regarding `Nc1nc(N)c2sc3ncn([C@@H]4O[C@H](CO)C(O)C4O)c3c2n1` (stereo partly drawn) [CEM-007, 1-[(5,7-diaminoimidazo-[4′,5′:4,5]thieno[3,2-d]pyrimidin-3-yl)]-β-D-ribofuranose-2,3,5-Triol], the IC50 in [5] is 45 µM; in series [6] it was 64 µM; in series [7], 56.4 µM; in series [3] (setting [19]), 15.2 µM; in [3] (read-out: IC50, EBOV (VP30, Huh)), 11.7 µM. The EC50 in series [3] (Zaire ebolavirus) stood at 40.5 µM. For the same compound, in [4], the CC50 was over 100 µM.
`CC(C)OC(=O)[C@H](C)N[P@](=O)(OC[C@H]1O[C@@H](n2cnc3sc4c(N)ncnc4c32)C(O)C1O)Oc1ccccc1` (stereo partly shown) [CEM-012]: the IC50 in series [3] (setting [19]) came out at 49.3 µM. In series [4], this compound displayed a CC50 of 17.7 µM.
As to `CC(C)OC(=O)[C@H](C)N[P@](=O)(OC[C@H]1O[C@@H](n2cnc3sc(C(N)=O)c(N)c32)C(O)C1O)Oc1ccccc1` (stereo partly shown) [CEM-015], the midpoint of inhibition in [1], the IC50, lay at 93.9 µM.
On to `Nc1nc2c(sc3ncn([C@@H]4O[C@H](CO)C(O)C4O)c32)c(=O)[nH]1` (stereo partly drawn) [CEM-021, 1-[(5-Aminoimidazo[4′,5′:4,5]thieno[3,2-d]pyrimidin-3-yl-7-one)]-β-D-ribofuranose 2,3,5-Triol], for which the half-maximal inhibitory concentration (IC50) in series [5] amounted to 73.5 µM; in [6], 100 µM; in [3] (setting [19]) it was 43.6 µM. The CC50 in series [4] is 60.5 µM; in [8] it was over 100 µM.
For the compound `COc1nc(OC)c2sc3ncn([C@@H]4O[C@H](CO)C(O)C4O)c3c2n1` (stereo partly drawn) [CEM-028, 1-[(5,7-dimethoxyimidazo-[4′,5′:4,5]thieno[3,2-d]pyrimidin-3-yl)]-β-D-ribofuranose-2,3,5-Triol], the IC50 in series [3] (setting [19]) was determined as 48 µM. In [4], this compound had a CC50 of 138 µM.
`COc1nc(OC)c2sc3ncn([C@@H]4O[C@H](CO[P@@](=O)(N[C@@H](C)C(=O)OC(C)C)Oc5ccccc5)C(O)C4O)c3c2n1` (stereo partly shown) [CEM-036]: the 50% inhibitory concentration (IC50) in [5] was 24 µM; in series [6] it was 34 µM; in series [7], over 100 µM; in series [9] it was 21.6 µM; in series [10], 48.4 µM; in [3] (setting [19]), 37.7 µM. Further, the CC50 in [8], in [11] and in [12] was over 100 µM each time.
On to `CC(C)OC(=O)[C@H](C)N[P@@](=O)(Oc1ccccc1)OC1[C@@H](CO[P@@](=O)(N[C@@H](C)C(=O)OC(C)C)Oc2ccccc2)O[C@@H](n2cnc3sc4c(N)nc(N)nc4c32)C1(C)F` (stereo partly shown) [CEM-042], for which the IC50 in series [5] was 3.5 µM; in [6], 7.5 µM; in [7], 7.36 µM; in [9], 3.58 µM; in [10] it was 5.89 µM; in series [3] (setting [19]), 11.6 µM. Also, the values for the IC90 in [5] and in series [6] were 6.8 µM and 25 µM, respectively. Also, the EC50 is 5.89 µM in series [13] (Severe acute respiratory syndrome coronavirus 2, read-out: EC50, SARS-CoV-2 (A549-hACE2)); 24.6 µM in series [1]; 86.7 µM in series [14]; 1.5 µM in series [15]. Moreover, the EC90 in series [13] (Severe acute respiratory syndrome coronavirus 2, read-out: EC90, SARS-CoV-2 (A549-hACE2)) came out at 6.5 µM. In addition, the CC50 in series [2], in series [16], in series [8], in series [17], in series [11] and in series [12] was over 100 µM throughout. For the same compound, in [18], the CC50 was over 100 µM.
Consider `CCC(CC)COC(=O)[C@H](C)N[P@](=O)(OC[C@H]1O[C@@H](n2cnc3sc4c(N)nc(N)nc4c32)C(C)(F)C1O)Oc1ccccc1` (stereo partly shown) [CEM-052], for which the values for the half-maximal inhibitory concentration (IC50) in series [5], in series [6] and in series [7] were 19 µM, 16 µM and 20.6 µM, respectively. Moreover, the figures for the EC50 in [3] (Zaire ebolavirus) and in [3] were 9.1 µM and 11.4 µM, respectively. In series [17], the CC50 is 33 µM.
For the compound `CCC(CC)COC(=O)[C@H](C)N[P@@](=O)(Oc1ccccc1)OC1[C@@H](CO[P@@](=O)(N[C@@H](C)C(=O)OCC(CC)CC)Oc2ccccc2)O[C@@H](n2cnc3sc4c(N)nc(N)nc4c32)C1(C)F` (stereo partly shown) [CEM-053], the IC50 in series [5] is 18 µM; in series [6], 2.9 µM; in series [7] it was 21.9 µM; in series [10], 2.95 µM. Moreover, the EC50 was 4.5 µM in [3] (Zaire ebolavirus) and 6.7 µM in [3]. The compound further had a CC50 in [17] of over 50 µM.
For `CC(C)OC(=O)[C@H](C)N[P@](=O)(OC[C@H]1O[C@@H](n2cnc3sc4c(N)nc(N)nc4c32)C(C)(F)C1OC(=O)C(C)C)Oc1ccccc1` (stereo partly shown) [CEM-054], the IC50 in series [5] came out at 22 µM; in series [6], 10 µM; in [7], 37.9 µM. Further, the results for the EC50 in [3] (Zaire ebolavirus) and in [3] were 10.8 µM and 11.2 µM, respectively. The compound further yielded a CC50 in [17] of 32 µM.
Regarding `CCC(CC)COC(=O)[C@H](C)N[P@](=O)(OC[C@H]1O[C@@H](n2cnc3sc4c(N)nc(N)nc4c32)[C@](C)(F)C1OC(=O)C(C)C)Oc1ccccc1` (stereo partly shown) [CEM-055], the IC50 was determined as 19.6 µM in [7] and 11.9 µM in series [10]. Further, the EC50 came to 6.2 µM in series [3] (Zaire ebolavirus) and 10.1 µM in series [3].
Take `CCC(CC)COC(=O)[C@H](C)N[P@](=O)(OC[C@H]1O[C@@H](n2cnc3sc4c(N)nc(N)nc4c32)C(O)C1O)Oc1ccccc1` (stereo partly shown) [CEM-056]: the IC50 in series [7] amounted to 59.3 µM; in [10], 44.7 µM. Moreover, the EC50 in [3] (Zaire ebolavirus) was found to be 22.1 µM.

The IC50 is the concentration that inhibits the measured activity by half. One may read the EC50 as the concentration at which the effect is half-maximal. As usually defined, the IC90 is the concentration at which the effect reaches the 90% level. What is called EC90 is the point of the concentration-response curve where the effect stands at 90%.
